Laboratory results from patent US12702665B2, “ExoVII inhibitor and quinolone antibiotic combination useful for treating bacterial infection” (The United States of America, As Represented by the …, priority 2020, dated 2026).

Columns and labels:
ExoVII = biological target: T1, ExoVII (Escherichia coli, UniProt P04994); test: In-vitro ExoVII cleavage assay (IC50 determination); type: biochemical
T1 construct: purchased ThermoFisher or NEB
Experimental: FIG. 13A, FIG. 13B, FIG. 13C, and FIG. 13D. CPID is a specific ExoVII inhibitor. FIG. 13A. […] FIG. 13B. […] FIG. 13C. […] Representative gel image and quantification are shown. IC50 value was averaged from 5 independent experiments. FIG. 13D. CPID is not toxic to HEK293 or MEF cells as determined by relative confluency of seeded cells after 72-hour treatment at the indicated CPID concentration.
ExoVII reactions were incubated at 37° C. for 1 or 2 hrs followed by inactivation at 55° C. for 30 mins before terminated by addition of 20 μL formamide gel loading buffer (96% (v/v) formamide, 10 mM ethylenediaminetetraacetic acid, 1% (w/v) xylene cyanol and 1% (w/v) bromophenol blue). For IC50 determination, ExoVII was preincubated with the inhibitor at 25° C. for 5 mins before addition of equal volume of DNA solution and the reaction continued for another 20-30 mins. The 10 μL reaction contained 0.025 U/μL ExoVII, 20-100 nM internally ratio-labeled DNA substrate, and indicated inhibitor concentration in buffer with 50 mM potassium acetate, 20 mM trisacetate (pH=7.9), 10 mM magnesium acetate, 1 mM DTT and 10% (v/v) DMSO. The percentage of products in the presence of inhibitor was normalized to that of control reaction without any inhibitors, and resulting plot was fitted to a nonlinear regression function in Prism. DNA gyrase was purified as previously described.

ΔxseB-pgyrA-S83L = test: Synergy with ciprofloxacin in quinolone-resistant ExoVII-deficient strain (OD600 growth); type: cell-based, E. coli
Experimental: (§1) OD600 was measured at the end of 4-hr incubation at 37° C. shaking at 225 rpm and cell densities were normalized to samples without any drug treatment. Toxicity of compounds were measured by treating either HEK293 or MEF (1000 cells in 96-well plates seeded 24-hr prior) with indicated concentrations of ExoVII inhibitor for 72 hours. The samples were imaged with a Cytation 5 (BioTek) and the confluency of each well were normalized to untreated samples.

ΔxseA-pgyrA-S83L = test: as above; type: cell-based, E. coli
Experimental: as §1

WT-pgyrA-S83L = test: Synergy with ciprofloxacin in quinolone-resistant strain (OD600 growth); type: cell-based, E. coli
Experimental: as §1

[1] = tested on: Staphylococcus aureus strain HG003; test: Synergy with ciprofloxacin in Staphylococcus aureus cultures (OD600 growth); type: cell-based; conditions: gram-positive
Experimental: as §1

[2] = tested on: E. coli strains carrying the gyrA-S83L mutation; test: MIC of ciprofloxacin (MIC test strips), quinolone-resistant gyrA-S83L strains; type: cell-based
[3] = tested on: E. coli pgyrAHis transformants deficient in ExoVII; test: Spotting assay on LB plates containing quinolones; type: cell-based; conditions: ΔxseA or ΔxseB pgyrAHis transformants vs wild-type
From the text: FIG. 8A, FIG. 8B, and FIG. 8C. Expression of a functional GyrAHis has no impact on sensitivities of E. coli strains to quinolones. FIG. 8A. Transformants of a single-copy plasmid bearing the gyrA gene including its endogenous promoter and a C-terminal His-tag (pgyrAHis) were established in either the wild-type, ΔxseA or ΔxseB strains. […] The asterisk denotes a non-specific band. FIG. 8B. Immunoblotting of the same transformants as in FIG. 8A, probed with anti-GyrA antibody (Abcam). FIG. 8C. […] Two technical replicates are shown.
Cell killing assays were carried out as previously described. Briefly, transformants harboring pBAD/Thio, pYtopA or pYtopA-R327W were grown in LB with 2% glucose and 50 μg/mL carbenicillin overnight and diluted 1:100 in LB with 50 μg/mL carbenicillin and grown to OD600 of 0.4. YTop1 or YTop1-R327W were induced by addition of 0.2% arabinose for 0.5-2 hrs. Post-induction cultures were then serially diluted and spotted onto LB plates with 2% glucose and 50 μg/mL carbenicillin and incubated at 37° C. overnight. Alternatively, exponentially growing transformants were serially diluted as indicated and spotted on LB plates containing 50 μg/mL carbenicillin and indicated concentrations of arabinose and incubated at 37° C. overnight.

T1 sequence (P04994 whole entry): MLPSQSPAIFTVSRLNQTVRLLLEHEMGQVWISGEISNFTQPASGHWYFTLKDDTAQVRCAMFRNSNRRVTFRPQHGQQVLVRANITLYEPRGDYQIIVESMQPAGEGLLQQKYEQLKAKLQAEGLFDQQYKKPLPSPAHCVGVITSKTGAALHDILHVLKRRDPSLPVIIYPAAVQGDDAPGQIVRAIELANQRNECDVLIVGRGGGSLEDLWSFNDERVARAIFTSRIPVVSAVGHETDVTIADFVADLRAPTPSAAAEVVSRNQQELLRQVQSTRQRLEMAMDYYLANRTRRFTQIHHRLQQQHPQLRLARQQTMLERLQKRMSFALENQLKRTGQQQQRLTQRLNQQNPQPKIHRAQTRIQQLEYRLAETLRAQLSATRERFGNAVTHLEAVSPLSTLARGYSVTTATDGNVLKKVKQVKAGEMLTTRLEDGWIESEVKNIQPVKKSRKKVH
T1 sequence (P0A8G9 whole entry, further chain): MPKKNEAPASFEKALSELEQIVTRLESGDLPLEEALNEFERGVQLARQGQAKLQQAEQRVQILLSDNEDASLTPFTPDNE

## O=C1Cc2ccc(-c3cccc(Cl)c3)cc2C(=O)N1 [CPID, 7-(3-chlorophenyl)-1,3(2H,4H)-Isoquinolinedione]
ExoVII
  IC50: 2430 nM
ΔxseB-pgyrA-S83L
  Synergy with ciprofloxacin: not synergistic
ΔxseA-pgyrA-S83L
  Synergy with ciprofloxacin: not synergistic
WT-pgyrA-S83L
  Synergy with ciprofloxacin: synergistic
[1]
  Synergy with ciprofloxacin: clear synergy

## O=C(O)c1cn(C2CC2)c2cc(N3CCNCC3)c(F)cc2c1=O [ciprofloxacin]
[2]; gyrA-S83L background
  Decrease in ciprofloxacin MIC on inactivating either subunit of ExoVII: ~ 2 fold
[2]; gyrA-S83L vs wild-type gyrA
  Increase in ciprofloxacin MIC by gyrA-S83L: 10 fold
[3]
  Sensitivity of ExoVII-deficient transformants to quinolones: hypersensitivity

## CCn1cc(C(=O)O)c(=O)c2ccc(C)nc21 [nalidixic acid]
[3]
  Sensitivity of ExoVII-deficient transformants to quinolones: hypersensitivity
